Reference: PubChem BioAssay (NCI)
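Cells were grown in 96-well plates and exposed to each compound for 48 hours at five concentrations; endpoints were interpolated linearly between bracketing concentrations, or set to the highest concentration if not reached. TGI denotes the concentration required for complete inhibition of growth.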

Tests used:
Assay in all cases: NCI tumour cell line growth inhibition, 48 h
[1] = tested on: 786-0 renal
[2] = tested on: A498 renal
[3] = tested on: A549 NSCLC
[4] = tested on: ACHN renal
[5] = tested on: BT-549 breast
[6] = tested on: CAKI-1 renal
[7] = tested on: CCRF-CEM leukemia
[8] = tested on: COLO 205 colon
[9] = tested on: DU-145 prostate
[10] = tested on: EKVX NSCLC
[11] = tested on: HCC-2998 colon
[12] = tested on: HCT-116 colon
[13] = tested on: HCT-15 colon
[14] = tested on: HL-60(TB) leukemia
[15] = tested on: HOP-92 NSCLC
[16] = tested on: HS 578T breast
[17] = tested on: HT29 colon
[18] = tested on: IGROV1 ovarian
[19] = tested on: K-562 leukemia
[20] = tested on: KM12 colon
[21] = tested on: LOX IMVI melanoma
[22] = tested on: M14 melanoma
[23] = tested on: MALME-3M melanoma
[24] = tested on: MCF7 breast
[25] = tested on: MDA-MB-231 breast
[26] = tested on: MDA-MB-435
[27] = tested on: MDA-N
[28] = tested on: MOLT-4 leukemia
[29] = tested on: NCI-H226 lung
[30] = tested on: NCI-H460 lung
[31] = tested on: NCI/ADR-RES ovarian
[32] = tested on: OVCAR-4 ovarian
[33] = tested on: OVCAR-5 ovarian
[34] = tested on: OVCAR-8 ovarian
[35] = tested on: PC-3 prostate
[36] = tested on: RXF 393 renal
[37] = tested on: SF-268 CNS
[38] = tested on: SF-295 CNS
[39] = tested on: SF-539 CNS
[40] = tested on: SK-MEL-2 melanoma
[41] = tested on: SK-MEL-28 melanoma
[42] = tested on: SK-OV-3 ovarian
[43] = tested on: SN12C renal
[44] = tested on: SNB-75 CNS
[45] = tested on: SW-620 colon
[46] = tested on: T-47D breast
[47] = tested on: TK-10 renal
[48] = tested on: U251 CNS
[49] = tested on: UACC-257 melanoma
[50] = tested on: UACC-62 melanoma
[51] = tested on: UO-31 renal
[52] = tested on: HOP-62 NSCLC
[53] = tested on: NCI-H23 lung
[54] = tested on: NCI-H522 lung
[55] = tested on: OVCAR-3 ovarian
[56] = tested on: SK-MEL-5 melanoma
[57] = tested on: SNB-19 CNS
[58] = tested on: RPMI-8226 leukemia

In the case of `C[C@]12CC[C@@H]3c4cc(Br)c(O)c(Br)c4CC[C@H]3[C@@H]1CC(Br)C2=O` (some centres not stated), the TGI [1] is reported as > 100 µM, the TGI [2] is reported as 44.6 µM and the TGI [3] is reported as 38.8 µM. For the same molecule, the TGI [4] was 21.2 µM, the TGI [5] was 17.6 µM and the TGI [6] was 15.9 µM. For the same molecule, the TGI [7] was 50.5 µM, the TGI [8] was > 100 µM and the TGI [9] was > 100 µM. For the same molecule, the TGI [10] was 39.6 µM, the TGI [11] was 3.73 µM and the TGI [12] was > 100 µM. It also gave a TGI [13] of 10.1 µM, a TGI [14] of 7.52 µM and a TGI [15] of 45.6 µM. It also gave a TGI [16] of 82.4 µM, a TGI [17] of 10.7 µM and a TGI [18] of 23.6 µM. For the same molecule, the TGI [19] was 13.6 µM, the TGI [20] was 15.8 µM and the TGI [21] was > 100 µM. The TGI [22] was > 100 µM, the TGI [23] was 34.2 µM and the TGI [24] was 29.9 µM. The TGI [25] was 75 µM, the TGI [26] was 21.6 µM and the TGI [27] was 43.5 µM. The TGI [28] was 9.36 µM, the TGI [29] was 26.6 µM and the TGI [30] was 18.8 µM. For the same molecule, the TGI [31] was 39.5 µM, the TGI [32] was > 100 µM and the TGI [33] was 73.2 µM. The TGI [34] was 7.83 µM, the TGI [35] was 27.2 µM and the TGI [36] was 19.3 µM. The TGI [37] was 26.8 µM, the TGI [38] was 33.1 µM and the TGI [39] was 24.4 µM. It also gave a TGI [40] of 27.3 µM, a TGI [41] of 22.3 µM and a TGI [42] of 30.2 µM. The TGI [43] was 38.4 µM, the TGI [44] was 27.9 µM and the TGI [45] was 9.57 µM. For the same molecule, the TGI [46] was > 100 µM, the TGI [47] was 29.4 µM and the TGI [48] was 12.7 µM. For the same molecule, the TGI [49] was 33.5 µM, the TGI [50] was 14.8 µM and the TGI [51] was 9.03 µM.
With `O=C(c1ccc(Cl)cc1)N(C(=S)OC12CC3CC(CC(C3)C1)C2)c1ccccc1` the TGI [1] was > 100 µM, the TGI [2] was > 100 µM and the TGI [3] was > 100 µM. For the same molecule, the TGI [4] was > 100 µM, the TGI [5] was > 100 µM and the TGI [6] was > 100 µM. The TGI [7] was > 100 µM, the TGI [8] was 31.2 µM and the TGI [9] was > 100 µM. For the same molecule, the TGI [10] was 66.5 µM, the TGI [11] was > 100 µM and the TGI [12] was > 100 µM. For the same molecule, the TGI [13] was > 100 µM, the TGI [14] was 62.6 µM and the TGI [52] was > 100 µM. For the same molecule, the TGI [15] was > 100 µM, the TGI [16] was > 100 µM and the TGI [17] was > 100 µM. The TGI [19] was > 100 µM, the TGI [20] was > 100 µM and the TGI [22] was > 100 µM. For the same molecule, the TGI [23] was > 100 µM, the TGI [24] was > 100 µM and the TGI [25] was > 100 µM. For the same molecule, the TGI [26] was > 100 µM, the TGI [27] was > 100 µM and the TGI [28] was 73.5 µM. For the same molecule, the TGI [29] was > 100 µM, the TGI [53] was > 100 µM and the TGI [30] was > 100 µM. The TGI [54] was 56.3 µM, the TGI [31] was > 100 µM and the TGI [55] was > 100 µM. The TGI [32] was > 100 µM, the TGI [33] was > 100 µM and the TGI [34] was > 100 µM. The TGI [35] was > 100 µM, the TGI [36] was > 100 µM and the TGI [37] was > 100 µM. The TGI [38] was > 100 µM, the TGI [39] was > 100 µM and the TGI [40] was > 100 µM. The TGI [41] was > 100 µM, the TGI [56] was > 100 µM and the TGI [42] was > 100 µM. The TGI [43] was > 100 µM, the TGI [57] was 89.7 µM and the TGI [44] was > 100 µM. For the same molecule, the TGI [45] was > 100 µM, the TGI [46] was > 100 µM and the TGI [47] was > 100 µM. The TGI [48] was > 100 µM, the TGI [49] was > 100 µM and the TGI [50] was > 100 µM. For the same molecule, the TGI [51] was 74.5 µM.
For `NS(=O)(=O)c1ccc(NC(=S)/N=C/c2c(O)c3ccccc3oc2=O)cc1`, the TGI [1] was > 100 µM, the TGI [2] was 64.1 µM and the TGI [3] was > 100 µM. The TGI [4] was > 100 µM, the TGI [5] was > 100 µM and the TGI [6] was 62.4 µM. For the same molecule, the TGI [7] was > 100 µM, the TGI [8] was > 100 µM and the TGI [9] was > 100 µM. For the same molecule, the TGI [10] was > 100 µM, the TGI [11] was > 100 µM and the TGI [12] was > 100 µM. For the same molecule, the TGI [13] was > 100 µM, the TGI [14] was > 100 µM and the TGI [52] was > 100 µM. For the same molecule, the TGI [15] was 68.1 µM, the TGI [16] was 99.6 µM and the TGI [17] was > 100 µM. The TGI [18] was 97.1 µM, the TGI [19] was > 100 µM and the TGI [20] was > 100 µM. The TGI [21] was > 100 µM, the TGI [22] was > 100 µM and the TGI [24] was > 100 µM. The TGI [25] was 65 µM, the TGI [26] was > 100 µM and the TGI [27] was > 100 µM. For the same molecule, the TGI [28] was > 100 µM, the TGI [29] was 61 µM and the TGI [53] was > 100 µM. For the same molecule, the TGI [30] was > 100 µM, the TGI [54] was 88.6 µM and the TGI [31] was > 100 µM. For the same molecule, the TGI [55] was > 100 µM, the TGI [32] was > 100 µM and the TGI [33] was > 100 µM. The TGI [34] was > 100 µM, the TGI [35] was > 100 µM and the TGI [58] was > 100 µM. The TGI [36] was 80.9 µM, the TGI [37] was > 100 µM and the TGI [38] was > 100 µM. For the same molecule, the TGI [39] was > 100 µM, the TGI [40] was > 100 µM and the TGI [56] was 96.1 µM. For the same molecule, the TGI [42] was > 100 µM, the TGI [43] was > 100 µM and the TGI [57] was 85.5 µM. The TGI [44] was 53.3 µM, the TGI [45] was > 100 µM and the TGI [46] was > 100 µM. The TGI [47] was > 100 µM, the TGI [48] was > 100 µM and the TGI [49] was > 100 µM. For the same molecule, the TGI [50] was > 100 µM and the TGI [51] was 87.6 µM.
